#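 1) Cells in 96-well plates. 2) Compound, 48 h, 5 concentrations. 3) Linear interpolation between surrounding doses. 4) Unreached endpoint = highest concentration. GI50 = concentration required for 50% inhibition of growth. Definition used: TGI = concentration required for complete inhibition of growth.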
# Key:
# Assay in all cases: NCI tumour cell line growth inhibition, 48 h
# [1] = tested on: HCC-2998 colon
# [2] = tested on: NCI-H460 lung
# [3] = tested on: SF-295 CNS
# [4] = tested on: CAKI-1 renal
# [5] = tested on: T-47D breast
# [6] = tested on: SF-268 CNS
# [7] = tested on: HT29 colon
# [8] = tested on: UO-31 renal
# [9] = tested on: NCI-H522 lung
# [10] = tested on: OVCAR-4 ovarian
# [11] = tested on: SR leukemia
# [12] = tested on: OVCAR-5 ovarian
# [13] = tested on: HL-60(TB) leukemia
# [14] = tested on: M14 melanoma
# [15] = tested on: SNB-19 CNS
# [16] = tested on: COLO 205 colon
# [17] = tested on: TK-10 renal
# [18] = tested on: HCT-116 colon
# [19] = tested on: IGROV1 ovarian
# [20] = tested on: U251 CNS
# [21] = tested on: OVCAR-8 ovarian
# [22] = tested on: K-562 leukemia
# [23] = tested on: KM12 colon
# [24] = tested on: SK-MEL-28 melanoma
# [25] = tested on: MDA-MB-435
# [26] = tested on: MCF7 breast
# [27] = tested on: NCI/ADR-RES ovarian
# [28] = tested on: MALME-3M melanoma
# [29] = tested on: SK-MEL-2 melanoma
# [30] = tested on: A498 renal
# [31] = tested on: UACC-62 melanoma
# [32] = tested on: NCI-H226 lung
# [33] = tested on: BT-549 breast
# [34] = tested on: SW-620 colon
# [35] = tested on: OVCAR-3 ovarian
# [36] = tested on: CCRF-CEM leukemia
# [37] = tested on: UACC-257 melanoma
# [38] = tested on: RPMI-8226 leukemia
# [39] = tested on: ACHN renal
# [40] = tested on: HS 578T breast
# [41] = tested on: DU-145 prostate
# [42] = tested on: SK-OV-3 ovarian
# [43] = tested on: PC-3 prostate
# [44] = tested on: NCI-H23 lung
# [45] = tested on: SN12C renal
# [46] = tested on: RXF 393 renal
# [47] = tested on: SK-MEL-5 melanoma
# [48] = tested on: 786-0 renal
# [49] = tested on: A549 NSCLC
# [50] = tested on: MDA-MB-231 breast
# [51] = tested on: MOLT-4 leukemia
# [52] = tested on: LOX IMVI melanoma
# [53] = tested on: SNB-75 CNS
# [54] = tested on: HCT-15 colon
# [55] = tested on: SF-539 CNS
# [56] = tested on: HOP-62 NSCLC
smiles,measurement,setting,value
Cn1cc(C2=C(c3cn(C)c4ccc(Cl)cc34)C(=O)NC2=O)c2ccccc21,GI50,[1],6.76 µM
same,TGI,[1],> 23.9 µM
same,GI50,[2],3.25 µM
same,TGI,[2],8.9 µM
same,GI50,[3],1600 nM
same,TGI,[3],8.02 µM
same,GI50,[4],2750 nM
same,TGI,[4],> 23.7 µM
same,GI50,[5],3.84 µM
same,TGI,[5],13 µM
same,GI50,[6],5.51 µM
same,TGI,[6],> 25 µM
same,GI50,[7],1230 nM
same,TGI,[7],8.38 µM
same,GI50,[8],2540 nM
same,TGI,[8],11.7 µM
same,GI50,[9],1340 nM
same,TGI,[9],10.5 µM
same,GI50,[10],6 µM
same,TGI,[10],> 23.5 µM
same,GI50,[11],1180 nM
same,TGI,[11],16.2 µM
same,GI50,[12],9.3 µM
same,TGI,[12],> 21.9 µM
same,GI50,[13],1400 nM
same,TGI,[13],8.82 µM
same,GI50,[14],2630 nM
same,TGI,[14],> 24 µM
same,GI50,[15],8.33 µM
same,TGI,[15],> 25 µM
same,GI50,[16],1670 nM
same,TGI,[16],7.93 µM
same,GI50,[17],5.55 µM
same,TGI,[17],23 µM
same,GI50,[18],1520 nM
same,TGI,[18],7.42 µM
same,GI50,[19],6.51 µM
same,TGI,[19],> 21.7 µM
same,GI50,[20],2210 nM
same,TGI,[20],14 µM
same,GI50,[21],5.16 µM
same,TGI,[21],> 21.6 µM
same,GI50,[22],1350 nM
same,TGI,[22],> 25 µM
same,GI50,[23],2380 nM
same,TGI,[23],10.4 µM
same,GI50,[24],4.26 µM
same,TGI,[24],19.6 µM
same,GI50,[25],645 nM
same,TGI,[25],2850 nM
same,GI50,[26],1250 nM
same,TGI,[26],> 25 µM
same,GI50,[27],3.82 µM
same,TGI,[27],> 23 µM
same,GI50,[28],6.33 µM
same,TGI,[28],19 µM
same,GI50,[29],1680 nM
same,TGI,[29],6.65 µM
same,GI50,[30],1750 nM
same,TGI,[30],7.09 µM
same,GI50,[31],2420 nM
same,TGI,[31],8.36 µM
same,GI50,[32],4.56 µM
same,TGI,[32],17.4 µM
same,GI50,[33],3.56 µM
same,TGI,[33],9.03 µM
same,GI50,[34],1380 nM
same,TGI,[34],> 25 µM
same,GI50,[35],1440 nM
same,TGI,[35],6.88 µM
same,GI50,[36],1180 nM
same,TGI,[36],19.2 µM
same,GI50,[37],5.09 µM
same,TGI,[37],16.8 µM
same,GI50,[38],5.68 µM
same,TGI,[38],17.2 µM
same,GI50,[39],3.15 µM
same,TGI,[39],> 25 µM
same,GI50,[40],2110 nM
same,TGI,[40],> 23.9 µM
same,GI50,[41],8.45 µM
same,TGI,[41],> 25 µM
same,GI50,[42],2870 nM
same,TGI,[42],> 21 µM
same,GI50,[43],3.88 µM
same,TGI,[43],> 23.2 µM
same,GI50,[44],4.64 µM
same,TGI,[44],14.6 µM
same,GI50,[45],3.87 µM
same,TGI,[45],15.7 µM
same,GI50,[46],3.19 µM
same,TGI,[46],7.76 µM
same,GI50,[47],3.47 µM
same,TGI,[47],8.28 µM
same,GI50,[48],4.03 µM
same,TGI,[48],16.9 µM
same,GI50,[49],2120 nM
same,TGI,[49],16.8 µM
same,GI50,[50],6.69 µM
same,TGI,[50],> 25 µM
same,GI50,[51],2170 nM
same,TGI,[51],14.9 µM
same,GI50,[52],2740 nM
same,TGI,[52],11.9 µM
same,GI50,[53],709 nM
same,TGI,[53],> 17.3 µM
same,GI50,[54],1350 nM
same,TGI,[54],> 25 µM
same,GI50,[55],1280 nM
same,TGI,[55],4.74 µM
same,GI50,[56],3.79 µM
same,TGI,[56],17.8 µM
